# Patent US9345681B2, “Anti-obesity agent comprising high-purity EPA” (MOCHIDA PHARMACEUTICAL CO., LTD., priority 2011, dated 2016)
# Tests used:
# [1] = test system: obesity model hamster fed on a high fat diet; assay: Effect of suppressing the body weight gain in the obesity model hamster fed on a high fat diet; type: in vivo, Syrian hamsters; settings: for body weight gain rate on the 21st day: mixed diet of high fat diet + 2% test substance, compared with high-fat diet group (FIG. 1)
# Method: 6 week old male Syrian hamsters (Japan SLC, Inc.) were bred at a temperature of 23±3° C. and a light-dark cycle of 12 hours on a free feeding of standard diet for 11 days, and the hamsters were divided into 4 groups, namely, standard forage group (Standard) (n=4), high-fat diet group (n=8), EPA group (HF+EPA-E) (n=8), and DHA group (HF+DHA-E) (n=7). The standard diet used was CLEA Rodent Diet CE-2 (4.8% fat) manufactured by CLEA Japan, Inc. and the high fat diet (HF) used was Hypercholesterolemic Hamster Diet (9% sugar and fat 21% fat) manufactured by Wilson. The effects of the EPA and DHA on the body weight gain were confirmed by using hamsters fed on a high fat diet (HF). During the feeding on the high fat diet, a mixed diet of high fat diet+2% EPA-E (comprising 98.24% EPA-E manufactured by Nippon Suisan Kaisha, Ltd.) was given to the EPA group, and a mixed diet of high fat diet+2% DHA-E (comprising 97.4% DHA-E manufactured by Equateq Ltd.) was given to the DHA group (with the diet changed once a day in the morning). The control group was given a high fat diet or a standard diet (comprising 4.8% fat) (with the diet changed once a day in the morning). The body weight was measured from the day of the start of the administration. The body weight gain rate on the 21st day was higher in the group fed on the high-fat diet group compared to the standard forage group, and the group fed on the high-fat diet was in the condition of obesity. […] This confirms that the action of suppressing the body weight gain (or reducing the body weight) of the EPA-E is realized by the action of suppressing (or reducing) the amount of fat, namely, the anti-obesity action.
# plasma LDL-C = assay: Effects on LDL-C level in high fat diet hamster; type: in vivo, Syrian hamsters; settings: high fat diet + 2% test substance, 21st day of the administration (FIG. 3)
# Method: (§1) 6 week old male Syrian hamsters (Japan SLC, Inc.) were bred at a temperature of 23±3° C. and a light-dark cycle of 12 hours on a free feeding of standard diet for 11 days, and the hamsters were divided into 4 groups, namely, standard forage group (Standard) (n=4), high-fat diet group (n=8), EPA group (HF+EPA-E) (n=8), and DHA group (HF+DHA-E) (n=7). The standard diet used was CLEA Rodent Diet CE-2 (4.8% fat) manufactured by CLEA Japan, Inc. and the high fat diet (HF) used was Hypercholesterolemic Hamster Diet (9% sugar and fat 21% fat) manufactured by Wilson. The action of the EPA and the DHA on the LDL-C level was confirmed by using the hamsters fed on a high fat diet. Along with the experiment of the action of suppressing the body weight gain in Experimental Example 1, blood was collected at day 7, 14, and 21 after the starting of the administration, and plasma was separated by centrifugation. Plasma LDL-C concentration was measured by using a commercially available test reagent (Wako L-Type LDL-C manufactured by Wako Pure Chemical Industries).
# CETP = assay: Effects on CETP activity value in high fat diet hamster; type: in vivo, Syrian hamsters; settings: high fat diet + 2% test substance, 21st day of the administration (FIG. 4)
# Method: as §1, with “CETP activity value” for “LDL-C level”, “CETP activity value” for “LDL-C concentration”, “a” for “a commercially available”, “(CETP activity assay kit” for “(Wako L-Type LDL-C”, “Bio Vision).” for “Wako Pure Chemical Industries).”
# [2] = test system: model mouse with obesity associated with enhanced hepatic lipogenesis or fatty liver; settings: model mouse continuously fed on a high-fat and high-sugar diet; cited from earlier work
# [3] = test system: model mouse with obesity not associated with the enhancement of hepatic lipogenesis or fatty liver; settings: model mouse continuously fed on a high-fat diet; cited from earlier work
Compound,body weight gain rate on the 21st day [1],plasma LDL-C level (plasma LDL-C),plasma CETP activity value (CETP),"amount of fat in the epididymis on the 21st day ([1]; high fat diet + 2% test substance, 21st day (FIG. 2))",suppression of body weight gain [2],suppression of body weight gain [3]
"CC/C=C\C/C=C\C/C=C\C/C=C\C/C=C\C/C=C\CCC(=O)OCC [DHA-E, ethyl docosahexaenoate]",approximately equal to that of the high-fat diet group,An action of increasing the plasma LDL-C level was found,increase in the CETP activity was confirmed,,,
"CC/C=C\C/C=C\C/C=C\C/C=C\C/C=C\CCCC(=O)OCC [EPA-E, ethyl icosapentate]",lower than the control high-fat diet group,an action of suppressing the increase of the plasma LDL-C level was found,the action of suppressing the increase of the CETP activity was confirmed,increase in the amount of fat was significantly suppressed,effective in suppressing the body weight gain,ineffective
